Assay results reported in patent US20070264372A1, “Cosmetic or pharmaceutical product for external use based on papaya” (priority 2006, published 2007).

System: skin of the volunteers (volar surface of the forearm)
Test: Keratolytic activity: desquamation index after occlusive Finn chamber application, Protocol c)
Assay type: in vivo, human
Experimental: Under Protocol c) a study was carried out aimed to evaluate the Keratolytic activity of a raw, fermented papaya material for cosmetic use. The study was carried out according to a double-blinded protocol with randomisation of the application sites. Under the test, irritating products were applied to the skin of the volunteers by means of an occlusive chamber (Finn chamber, Ø 7.0 mm) containing a disc of absorbing paper wetted with a known quantity (20 μl) of product. The exposure time to the irritating product (Salicylic acid at 1.5, 3.0 and 5.0% (w/v) concentration) was 3 and 6 hours. The application site of the irritating products selected for study purposes was the volar surface of the forearm. The products were applied on the skin of the volunteers for 3 and 6 hours. • b) desquamation index on the images acquired with Comeofix® tape and Visioscan® (Courage+Khazaka electronic GmbH). Desquamation index was calculated as: DI=[2A+(T1·(1−1)+T2·(2−1)+ . . . +Tn·(n−1)]/(n+1) • The variation was calculated as: [formula] I.D. [X]0: Basal desquamation index; I.D. [X]x: Desquamation index at the x concentration (1.5, 3.0 and 5.0%) of fermented papaya or salicylic acid.

Structure (SMILES): O=C(O)c1ccccc1O [SALICYLIC ACID, Salicylic acid]
- Variation of desquamation index (1.5% solution, 3 h application): 2.58 ± 0.24
- Variation of desquamation index (1.5% solution, 6 h application): 2.71 ± 0.36
- Variation of desquamation index (3.0% solution, 3 h application): 3.12 ± 0.24
- Variation of desquamation index (3.0% solution, 6 h application): 3.24 ± 0.38
- Variation of desquamation index (5.0% solution, 3 h application): 3.25 ± 0.26
- Variation of desquamation index (5.0% solution, 6 h application): 3.59 ± 0.43
- change of desquamation index (both after 3.0 and 6.0 hours of application, result in words): increase
- application time at which the maximum keratolytic action was reached (statistical analysis): 3 h
- concentration at which the maximum keratolytic action was reached (statistical analysis): 3.0%
